Source: US20230398130A1, “METHODS AND COMPOSITIONS FOR DIFFERENTIATING STEM CELLS” (Massachusetts Institute of Technology, priority 2020, published 2023)

How the values were obtained:
[1] = tested on: ISC-enriched organoids; assay: Primary screen, 384-well 2.5-D organoid differentiation (ENR+CD, 6 days): basal lysozyme secretion (LYZ.NS); assay type: cell-based, murine; conditions: primary screen; for Dose.FC.LYZ.NS: FC vs plate median; for Z.LYZ.NS: standard z score; for SSMD.LYZ.NS: strictly standardized mean difference
Text: (§1) High-throughput screening.

[2] = tested on: ISC-enriched organoids; assay: Primary screen, 384-well 2.5-D organoid differentiation (ENR+CD, 6 days): carbachol-induced lysozyme secretion (LYZ.S); assay type: cell-based, murine; conditions: primary screen; for Dose.FC.LYZ.S: FC vs plate median; for Z.LYZ.S: standard z score; for SSMD.LYZ.S: strictly standardized mean difference
Text: as §1

[3] = tested on: ISC-enriched organoids; assay: Primary screen, 384-well 2.5-D organoid differentiation (ENR+CD, 6 days, Target Selective Inhibitor Library, vs whole-plate median): ATP (CellTiter-Glo 3D, CTG); conditions: primary screen; for Dose.FC.CTG: FC vs plate median; for Z.CTG: standard z score; for SSMD.CTG: strictly standardized mean difference
[4] = 1st of the 4 dose lines of the treatment (dose not given)
[5] = 2nd of the 4 dose lines of the treatment (dose not given)
[6] = 3rd of the 4 dose lines of the treatment (dose not given)
[7] = 4th of the 4 dose lines of the treatment (dose not given)

COc1cc(-c2ncn(/C=C\C(=O)OC(C)C)n2)cc(C(F)(F)F)c1 [KPT-185]
Dose.FC.LYZ.NS ([1]; Dose 0.08 uM): −0.006 log 2 fold change | Z.LYZ.NS ([1]; Dose 0.08 uM): −0.049 | Dose.FC.LYZ.NS ([1]; Dose 0.40 uM): 0.097 log 2 fold change | Z.LYZ.NS ([1]; Dose 0.40 uM): 0.846 | Dose.FC.LYZ.NS ([1]; Dose 2.00 uM): −0.209 log 2 fold change | Z.LYZ.NS ([1]; Dose 2.00 uM): −1.820 | Dose.FC.LYZ.NS ([1]; Dose 10.00 uM): −0.085 log 2 fold change | Z.LYZ.NS ([1]; Dose 10.00 uM): −0.744 | SSMD.LYZ.NS [1, 4]: −0.049 | SSMD.LYZ.NS [1, 5]: 0.872 | SSMD.LYZ.NS [1, 6]: −1.718 | SSMD.LYZ.NS [1, 7]: −0.298 | Dose.FC.LYZ.S ([2]; Dose 0.08 uM): −0.015 log 2 fold change | Dose.FC.LYZ.S ([2]; Dose 0.40 uM): 0.220 log 2 fold change | Dose.FC.LYZ.S ([2]; Dose 2.00 uM): −0.322 log 2 fold change | Dose.FC.LYZ.S ([2]; Dose 10.00 uM): −0.153 log 2 fold change | Z.LYZ.S [2, 4]: −0.096 | Z.LYZ.S [2, 5]: 1.420 | Z.LYZ.S [2, 6]: −2.085 | Z.LYZ.S [2, 7]: −0.989 | SSMD.LYZ.S [2, 4]: −0.092 | SSMD.LYZ.S [2, 5]: 0.978 | SSMD.LYZ.S [2, 6]: −1.455 | SSMD.LYZ.S [2, 7]: −0.431 | Dose.FC.CTG ([3]; Dose 0.08 uM): 0.116 log 2 fold change | Z.CTG ([3]; Dose 0.08 uM): 0.277 | Dose.FC.CTG ([3]; Dose 0.40 uM): 0.104 log 2 fold change | Z.CTG ([3]; Dose 0.40 uM): 0.248 | Dose.FC.CTG ([3]; Dose 2.00 uM): −0.995 log 2 fold change | Z.CTG ([3]; Dose 2.00 uM): −2.377 | Dose.FC.CTG ([3]; Dose 10.00 uM): −0.855 log 2 fold change | Z.CTG ([3]; Dose 10.00 uM): −2.041 | SSMD.CTG [3, 4]: 0.296 | SSMD.CTG [3, 5]: 0.270 | SSMD.CTG [3, 6]: −1.033 | SSMD.CTG [3, 7]: −0.723

HA14-1
Dose.FC.LYZ.NS ([1]; Dose 0.08 uM): 0.121 log 2 fold change | Z.LYZ.NS ([1]; Dose 0.08 uM): 1.052 | Dose.FC.LYZ.NS ([1]; Dose 0.40 uM): 0.137 log 2 fold change | Z.LYZ.NS ([1]; Dose 0.40 uM): 1.195 | Dose.FC.LYZ.NS ([1]; Dose 2.00 uM): 0.154 log 2 fold change | Z.LYZ.NS ([1]; Dose 2.00 uM): 1.345 | Dose.FC.LYZ.NS ([1]; Dose 10.00 uM): 0.132 log 2 fold change | Z.LYZ.NS ([1]; Dose 10.00 uM): 1.151 | SSMD.LYZ.NS [1, 4]: 1.056 | SSMD.LYZ.NS [1, 5]: 1.013 | SSMD.LYZ.NS [1, 6]: 1.483 | SSMD.LYZ.NS [1, 7]: 0.640 | Dose.FC.LYZ.S ([2]; Dose 0.08 uM): 0.190 log 2 fold change | Dose.FC.LYZ.S ([2]; Dose 0.40 uM): 0.316 log 2 fold change | Dose.FC.LYZ.S ([2]; Dose 2.00 uM): 0.170 log 2 fold change | Dose.FC.LYZ.S ([2]; Dose 10.00 uM): 0.149 log 2 fold change | Z.LYZ.S [2, 4]: 1.231 | Z.LYZ.S [2, 5]: 2.041 | Z.LYZ.S [2, 6]: 1.099 | Z.LYZ.S [2, 7]: 0.964 | SSMD.LYZ.S [2, 4]: 1.264 | SSMD.LYZ.S [2, 5]: 1.052 | SSMD.LYZ.S [2, 6]: 1.202 | SSMD.LYZ.S [2, 7]: 0.449 | Dose.FC.CTG ([3]; Dose 0.08 uM): 0.534 log 2 fold change | Z.CTG ([3]; Dose 0.08 uM): 1.276 | Dose.FC.CTG ([3]; Dose 0.40 uM): 0.526 log 2 fold change | Z.CTG ([3]; Dose 0.40 uM): 1.255 | Dose.FC.CTG ([3]; Dose 2.00 uM): 0.554 log 2 fold change | Z.CTG ([3]; Dose 2.00 uM): 1.323 | Dose.FC.CTG ([3]; Dose 10.00 uM): 0.388 log 2 fold change | Z.CTG ([3]; Dose 10.00 uM): 0.926 | SSMD.CTG [3, 4]: 1.389 | SSMD.CTG [3, 5]: 1.961 | SSMD.CTG [3, 6]: 2.075 | SSMD.CTG [3, 7]: 1.289

CCCCc1nc(Cl)c(CO)n1Cc1ccc(-c2ccccc2-c2nnn[n-]2)cc1.[K+] [Losartan Potassium (DuP 753)]
Dose.FC.LYZ.NS ([1]; Dose 0.08 uM): 0.052 log 2 fold change | Z.LYZ.NS ([1]; Dose 0.08 uM): 0.449 | Dose.FC.LYZ.NS ([1]; Dose 0.40 uM): 0.038 log 2 fold change | Z.LYZ.NS ([1]; Dose 0.40 uM): 0.329 | Dose.FC.LYZ.NS ([1]; Dose 2.00 uM): −0.042 log 2 fold change | Z.LYZ.NS ([1]; Dose 2.00 uM): −0.362 | Dose.FC.LYZ.NS ([1]; Dose 10.00 uM): 0.062 log 2 fold change | Z.LYZ.NS ([1]; Dose 10.00 uM): 0.540 | SSMD.LYZ.NS [1, 4]: 0.273 | SSMD.LYZ.NS [1, 5]: 0.263 | SSMD.LYZ.NS [1, 6]: −0.341 | SSMD.LYZ.NS [1, 7]: 0.423 | Dose.FC.LYZ.S ([2]; Dose 0.08 uM): −0.017 log 2 fold change | Dose.FC.LYZ.S ([2]; Dose 0.40 uM): 0.027 log 2 fold change | Dose.FC.LYZ.S ([2]; Dose 2.00 uM): −0.080 log 2 fold change | Dose.FC.LYZ.S ([2]; Dose 10.00 uM): −0.025 log 2 fold change | Z.LYZ.S [2, 4]: −0.112 | Z.LYZ.S [2, 5]: 0.173 | Z.LYZ.S [2, 6]: −0.519 | Z.LYZ.S [2, 7]: −0.164 | SSMD.LYZ.S [2, 4]: −0.104 | SSMD.LYZ.S [2, 5]: 0.194 | SSMD.LYZ.S [2, 6]: −0.616 | SSMD.LYZ.S [2, 7]: −0.185 | Dose.FC.CTG ([3]; Dose 0.08 uM): −0.152 log 2 fold change | Z.CTG ([3]; Dose 0.08 uM): −0.362 | Dose.FC.CTG ([3]; Dose 0.40 uM): −0.175 log 2 fold change | Z.CTG ([3]; Dose 0.40 uM): −0.418 | Dose.FC.CTG ([3]; Dose 2.00 uM): −0.081 log 2 fold change | Z.CTG ([3]; Dose 2.00 uM): −0.193 | Dose.FC.CTG ([3]; Dose 10.00 uM): −0.137 log 2 fold change | Z.CTG ([3]; Dose 10.00 uM): −0.328 | SSMD.CTG [3, 4]: −0.338 | SSMD.CTG [3, 5]: −0.304 | SSMD.CTG [3, 6]: −0.274 | SSMD.CTG [3, 7]: −0.390
